Measurements reported in US6040149A, “Assay for identifying agents which act on the ceramide-activated protein kinase, kinase suppressor of ras, and methods of using said agents” (priority 1997, dated 2000).
Like-named read-outs stand apart in the source and are kept apart here.

Assays:
[1] = test system: ceramide-activated protein kinase; assay: EGFR peptide phosphorylation by kinase in A-431 microsomal membranes / postnuclear supernatant; assay type: biochemical, human (A-431 epidermoid carcinoma cells); conditions: words
Experimental: Kinetics of ^32 Pi incorporation into the EGFR peptide. […] The reaction was initiated by addition of 50 μl of [γ-^32 P]ATP (150 μM final concentration) and terminated by addition of 50 μl of 0.5 M ATP in 90% (vol/vol) formic acid. Samples were spotted on phosphocellulose paper, washed with 1 M acetic acid/4 mM pyrophosphate, and ^32 P incorporation was measured by liquid-scintillation counting, as described. A boiled protein blank was subtracted from each data value. The data (means) represent duplicate samples from one of two similar experiments. […]
Kinetics of ceramide-induced ^32 Pi incorporation into EGFR peptide. Peptide phosphorylation was done as described in FIG. 2 in the absence (.smallcircle.) or presence (.circle-solid.) of 0.5 μM C8 -ceramide. Phosphorylated peptide was resolved by HPLC. Values (means) represent data from three experiments.
Concentration-dependence of ceramide-induced ^32 Pi incorporation into EGFR peptide. Peptide phosphorylation reactions were done as described for FIG. 2, for 2 minutes, using various concentrations of ceramide (0.001-3 μM). Phosphorylated peptide was resolved by HPLC. Values (means) represent data from three experiments. […]
Phosphorylation was initiated at 22° C. by addition of 50 μl of [γ-^32 P] ATP (150 μM final concentration; 4000 dpm/pmol). For studies with lipid activators, ceramide and other lipids were dried under N2 and resuspended in the kinase assay buffer by bath sonication for 2 minutes at 37° C.
Phosphorylated peptide was quantified by two separate methods. For initial studies, samples were spotted on phosphocellulose paper, washed in 1 M acetic acid/4 mM pyrophosphate and subjected to liquid scintillation counting, according to methods well known to those skilled in the art. Values obtained from a boiled blank or a sample lacking peptide were subtracted from each determination. Alternatively, HPLC was done according to methods well known to those skilled in the art. For these studies, samples were first applied to a C18 Sep-Pak cartridge and eluted with 99.9% acetonitrile/0.1% trifluoroacetic acid. The eluates were lyophilized, resuspended in 6 M guanidine hydrochloride/200 mM Tris, pH 8.5 and applied to a C18 reverse-phase column (Dynamax, 4.6 mm i.d., Rainin, Woburn, Mass.). The peptide was eluted with a linear gradient (1% per minute) of acetonitrile at a flow rate of 1 ml/minute and was detected by measuring the Cerenkov radiation associated with 1-ml fractions.

[2] = test system: ceramide-activated protein kinase
EL-4 cells = assay: Sphingomyelin and ceramide levels in intact EL-4 cells; assay type: cell-based, murine; conditions: maximally effective concentrations (n=5)
Experimental: IL-1β effects on sphingomyelin levels in EL4 cells. Time course (A) and dose response (B). Cells were grown to growth arrest (1-1.5×10^6 cells ml^-1) in DME/Ham's F12 medium (1:1, v/v) containing 10% horse serum and for 48 hours [^3 H]choline (1 μCi ml^-1). On the day of an experiment, cells were resuspended back into the same medium at 10×10^6 cells ml^-1 and stimulated with 40 ng ml^-1 IL-1β for the indicated times (A) or for 30 minutes with increasing concentrations of IL-1β (B). Human IL-1β may be obtained using methods well known to those skilled in the art. Reactions were terminated with CHCl3 :CH3 OH:HCl (100:100:1) containing 10 mM EDTA (82). Lipids in the organic phase extract were dried under N2 and subjected to mild alkaline hydrolysis (0.1 M methanolic KOH for 1 hour at 37° C.) to remove glycerophospholipids. Sphingomyelin was resolved by thin-layer chromatography (TLC) using CHCl3 :CH3 OH:CH3 COOH:H2 O (60:30:8:5) as solvent, identified by iodine vapor staining, and quantified by liquid scintillation spectrometry. As previously reported, the use of [^3 H]choline as a measure of sphingomyelin content was validated by simultaneous phospholipid phosphorus measurements. Each value represents the mean±SEM of triplicate determinations from four experiments in (A), and one representative of four similar studies performed in triplicate in (B).
Effect of IL-1β on ceramide levels in EL-4 cells. Cells were stimulated as in FIG. 12 with IL-1β (40 ng ml^-1) and ceramide contained within the organic phase extract quantified enzymatically using the E. coli diacylglycerol kinase reaction. Lipids were resolved by TLC using CHCl3 :CH3 OH:CH3 COOH (65/15/5) as solvent, autoradiographed and quantified by liquid scintillation spectrometry. Each value represents the mean±SEM of triplicate determinations from 10 experiments.
The murine thymoma EL-4 cell line is a well-defined IL-1 responsive cell line that expresses functional IL-1 receptors. Upon stimulation with IL-1, these cells up-regulate the IL-2 receptor and secrete IL-2 [62]. Initial studies were designed to investigate the effects of IL-1β on cellular sphingomyelin content. Cells, grown in Dulbecco's Modified Eagle's (DME)/Ham's F-12 medium containing 10% horse serum and [^3 H]choline (1 μCi ml^-1), were resuspended back into the same medium at 10×10^6 cells ml^-1 and stimulated with IL-1β. IL-1β is commercially available.

KSR = biological target: T1, KSR (Mus musculus, UniProt Q61097); assay: KSR activity toward Raf-1 peptides in vitro; assay type: biochemical, mouse (KSR immunoprecipitated from COS-7 cells); design: Raf-1 peptides as substrate; conditions: for KSR activity towards substrate peptide: 30 nM ceramide, 5 min
T1 sequence (Q61097 1-873): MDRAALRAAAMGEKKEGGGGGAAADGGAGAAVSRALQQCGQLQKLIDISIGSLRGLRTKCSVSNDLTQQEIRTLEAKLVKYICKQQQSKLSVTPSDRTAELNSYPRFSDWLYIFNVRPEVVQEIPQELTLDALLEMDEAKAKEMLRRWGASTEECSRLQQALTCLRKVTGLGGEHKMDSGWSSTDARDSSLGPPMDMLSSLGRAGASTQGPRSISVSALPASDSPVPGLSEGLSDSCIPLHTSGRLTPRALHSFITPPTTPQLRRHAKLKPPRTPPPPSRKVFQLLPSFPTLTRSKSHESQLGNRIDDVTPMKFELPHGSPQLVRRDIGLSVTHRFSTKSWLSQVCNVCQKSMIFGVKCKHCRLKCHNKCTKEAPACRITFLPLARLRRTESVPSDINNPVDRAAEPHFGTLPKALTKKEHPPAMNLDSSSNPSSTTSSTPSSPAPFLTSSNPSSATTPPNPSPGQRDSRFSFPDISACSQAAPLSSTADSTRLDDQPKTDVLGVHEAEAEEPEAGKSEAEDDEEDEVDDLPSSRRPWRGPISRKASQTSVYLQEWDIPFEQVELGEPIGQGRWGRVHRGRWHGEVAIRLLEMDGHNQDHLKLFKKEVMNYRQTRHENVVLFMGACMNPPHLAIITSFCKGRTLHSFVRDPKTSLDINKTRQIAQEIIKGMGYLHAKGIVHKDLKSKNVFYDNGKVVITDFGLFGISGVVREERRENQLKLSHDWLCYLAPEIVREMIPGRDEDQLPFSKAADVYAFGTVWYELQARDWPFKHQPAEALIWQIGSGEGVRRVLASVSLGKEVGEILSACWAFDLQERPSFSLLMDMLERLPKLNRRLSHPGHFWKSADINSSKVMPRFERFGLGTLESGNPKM
Experimental: The wild type peptide contains eight potential phosphorylation sites (shown in bold). Substitution of alanines and glycines for serines and threonines generated one peptide (TTLP-peptide) containing only two potential phosphorylation sites (Thr^268,269) and another peptide (AALP-peptide) with no potential phosphorylation sites.
FIG. 28A--Flag-tagged KSR was immunoprecipitated from 0.2 mg COS-7 lysate, and assayed with TTLP- or AALP-peptides in the presence of 30 nM ceramide (Avanti) or diluent (DMSO). Background counts per minute (cpm) derived from samples incubated with the AALP-peptide which contains no phosphorylation sites were subtracted from all points. Background cpm always represented less than 25% of the untreated total.
FIG. 28B--Flag-tagged KSR immunoprecipitated from 0.2 mg COS-7 lysate was assayed with TTLP- or AALP-peptides in the presence of ceramide or diluent for 45 min as described in FIG. 7A.
FIG. 28C--Flag-tagged KSR was immunoprecipitated from 0.15 mg COS-7 lysate and assayed with TTLP- or AALP-peptides for 20 min in the presence of 30 nM of the indicated lipid second messengers as described in FIG. 28A (AA: arachidonic acid; LPA: lyso phosphatidic acid; PMA: phorbol 12-myristate 13-acetate; DAG: 1,2-diacylglycerol).
KSR-bound beads were incubated with reaction buffer B plus 10 mM MnCl2, 5 μM ATP and [γ-^32 P]ATP at 22° C. for the period of time indicated in the presence of 0.3 mM synthetic Raf-peptide or substrate peptides specific for other Ser/Thr protein kinases. […] (SEQ ID NO.3). Substitution of glycines and alanines for serines and threonines generated one peptide (termed TTLP-peptide) containing only two potential phosphorylation sites at Thr^268,269 (in bold), […] (SEQ ID NO. 24), and another peptide (termed AALP-peptide; SEQ ID No.6) with no potential phosphorylation sites, […] (SEQ ID No.25). The amino acid sequences of substrate peptides specific for other protein kinases (Joseph et al., 1993) are: […] (SEQ ID NO.26) (PKA); […] (SEQ ID NO.27) (S6 kinase); […] (SEQ ID NO.28)(CK II); […] (SEQ ID NO.29) (CaM kinase II); and […] (SEQ ID NO.30) (PKC). […] Substrate peptides for PKA and PKC were from Sigma (St. Louis, Mo.). The reaction was stopped by addition of a stop solution containing 0.5 M ATP in 90% formic acid. The beads were removed by centrifugation at 5000×g for 2 min and the supernatant was loaded on P81 Whatman filter paper. The filter was air dried and washed in 4 mM Na2 H2 P2 O7, 1 mM acetic acid for one hour. The filter was baked at 90° C. for 10 min and quantified by Cerenkov counting using a Beckman LS 5000TD scintillation counter. In some experiments, samples were separated by C18 reverse-phase chromatography on HPLC (Mathias et al., 1991) to verify the results of the filter assay. Virtually identical results were obtained with both methods.

Question: With CCCCCCCCCCCCC/C=C/[C@@H](O)[C@H](CO)NC(=O)CCCCCCC [C8-ceramide, N-octanoylsphingosine] as the molecule, how does the “effect on EGFR peptide phosphorylation” value [1] read?
Answer: similarly effective

Question: What about the “maximal kinase activity, fold of control” value ([2]; 10 μM C8-cer added to medium) of the same molecule?
Answer: 1.5 fold of control

Question: How did the ceramide response (EL-4 cells) turn out when CNC[C@H](O)c1ccc(O)c(O)c1 [epinephrine] was run?
Answer: failed to elicit a ceramide response

Question: For CCCCCCCCCCCCCCCC(=O)O [palmitic acid], which “effect on EGFR peptide phosphorylation” value [1] is on record?
Answer: failed to increase EGFR peptide phosphorylation

Question: CC1=C(/C=C/C(C)=C/C=C/C(C)=C/C(=O)O)C(C)(C)CCC1 [retinoic acid] was tested. Which “effect on kinase activity in membranes of stimulated HL-60 cells” value ([2]; cholera toxin 10 nM, retinoic acid 0.5 μM, butyrate 0.5 mM) did it give?
Answer: not stimulated

Question: Which “KSR activity towards substrate peptide” value (KSR) does the source give for GRGLSLSR [PKA substrate peptide] here?
Answer: minimal activity

Question: With “LSSLRASTSKSGGQK [S6 kinase substrate peptide]” as the molecule, how does the “KSR activity towards substrate peptide” value (KSR) read?
Answer: minimal activity

Question: How did the “KSR activity towards substrate peptide” value (KSR) turn out when “PLARTLSVAGLPGK [CaM kinase II substrate peptide]” was run?
Answer: minimal activity

Question: How did the “phosphorylation of peptide by KSR” value (KSR) turn out when “RQRGAGAPNVHMVGAALPVDGRMIE [AALP-peptide]” was run?
Answer: negligible

Question: How did the “phosphorylation of peptide by KSR” value (KSR) turn out when “RQRGAGAPNVHMVGTTLPVDGRMIE [TTLP-peptide]” was run?
Answer: same extent

Question: How did the “KSR activity towards substrate peptide” value (KSR) turn out when RRREEETEEE [CK II substrate peptide] was run?
Answer: minimal activity

Question: VRKRTLRRL [PKC substrate peptide] was tested. Which “KSR activity towards substrate peptide” value (KSR) did it give?
Answer: minimal activity

Question: With cholera toxin as the molecule, how does the “effect on kinase activity in membranes of stimulated HL-60 cells” value [2] read?
Answer: not stimulated

Question: For concanavalin A, which ceramide response (EL-4 cells) is on record?
Answer: failed to elicit a ceramide response

Question: For dihydroceramide, which “activation of KSR” value (KSR) is on record?
Answer: fail to activate KSR
